{"source": "patent US20070213291A1", "about": "“Therapeutically useful synthetic oligonucleotides” (priority 1999, published 2007)", "key": {"[1]": {"test_system": "Jurkat human leukemia T cells", "experiment": "Intracellular calcium (Fluo-3-AM fluorescence)", "assay_type": "cell-based", "conditions": "24 h, 100 μg/ml", "experimental": "Increases in intracellular calcium (Ca^2+)i are reported to be associated with apoptosis induction (Lam et al. Mol. Endocrinol. 7:686, 1993). (Ca^2+)i was followed using the fluorescent probe Fluo-3-AM (Cell Permaant, Molecular Probes, Inc., Eugene, Oreg.). An increase in Fluo-3-AM fluorescence is indicative of an increase in (Ca^2+)i.\nJurkat human leukemia T cells were incubated for 24 h with 6 base GT SEQ. NO:25. Cells were collected by centrifugation, suspended in PBS containing 1% FBS and loaded with 10 μM Fluo-3-AM for 1 h at 37° C. Cell fluorescence was measured at 488 nm excitation and 530 nm emission (FL1 detector). Data were analyzed on a FACSCALIBUR using the program CellQUEST (Becton Dickinson)."}, "[2]": {"test_system": "MCF-7 human breast cancer cells", "experiment": "Cell cycle stage in MCF-7 cells (propidium iodide flow cytometry)", "assay_type": "cell-based", "conditions": "MCF-7, 5×10^5 cells/ml, 24 h", "experimental": "Cell cycle stage was determined using a […]™ PLUS DNA commercial kit (Becton Dickinson). Briefly, nuclei from cells were obtained by dissolving the cell membrane in a nonionic detergent, eliminating the cell cytoskeleton and nuclear proteins with trypsin, digesting the cellular RNA with RNase and stabilizing the nuclear chromatin with spermine. Propidium iodide was added to the cell nuclei and their fluorescence was analyzed in a flow cytometer equipped with electronic doublet discrimination capability (FACSCalibur, Becton Dickinson, San Jose, Calif.). Accumulation of cells in G0/G1, early S (SE), mid S (SM), late S (SL) or G2/M phases of the cell cycle was analyzed using MODFIT LT software (Verity Software House Inc., Topsham, Mass.).\nExponentially growing Jurkat human leukemia T cells (Table 28) and MCF-7 human breast cancer cells (5×10^5 cells/ml) (Table 29) were incubated for 24 h with 2, 6, 15, 18, 27 and 45 base sequences containing A, C, G and T. The cells were collected and centrifuged and cell cycle stage was determined."}}}
{"sequence": "GGGTGG [SEQ ID NO:25]", "values": [{"measurement": "increase in cell fluorescence (Fluo-3-AM), indicative of (Ca2+)i", "setting": "[1]", "value": 88, "unit": "%"}, {"measurement": "% cells in phase: G0/G1", "setting": "[2]", "value": 21.9, "unit": "%"}, {"measurement": "% cells in phase: G2/M", "setting": "[2]", "value": 17.4, "unit": "%"}, {"measurement": "% cells in phase: SE", "setting": "[2]", "value": 27.6, "unit": "%"}, {"measurement": "% cells in phase: SL", "setting": "[2]", "value": 10.9, "unit": "%"}, {"measurement": "% cells in phase: SM", "setting": "[2]", "value": 22.2, "unit": "%"}, {"measurement": "Arrest (cell cycle)", "setting": "[2]", "value": "End SM"}]}
